The text below walks through data of patent US9695200B2, “Heterocyclic ITK inhibitors for treating inflammation and cancer” (Confluence Life Sciences, Inc., priority 2015, dated 2017).

The target of one test is ITK (Homo sapiens (Human), UniProt Q08881). The test is described as follows: ITK inhibitor binding potency (LanthaScreen competitive binding assay). As to conditions: TR-FRET tracer-236 displacement, 10 nM ITK; pre-incubation condition not given; read-out: ITK Inhibition IC50. The source says:
The ability of candidate compounds to interact with ITK is quantitated by a competitive binding assay using the LanthaScreen technology developed by Life Technologies. This assay is based on the binding of a proprietary, Alexa Fluor® 647-labeled, ATP-competitive kinase inhibitor (kinase tracer-236) to the ITK expression construct in the presence of a Europium-conjugated antibody, resulting in a FRET (fluorescence resonance energy transfer) signal. Displacement of the kinase tracer by compound results in a lower emission ratio upon excitation of the Europium chelate. Candidate compounds are designed as potential irreversible inhibitors of ITK, capable of ligating to an active site cysteine residue resulting in time dependent covalent binding. The time dependent nature of irreversible inhibition is investigated by performing the binding assay with and without a pre-incubation of compound and ITK. […] The inhibitory potency of candidate compounds is measured in 20 mM HEPES pH 7.5, 10 mM MgCl2, 0.01% BSA, 0.0005% Tween-20, and 2% DMSO in the presence of 10 nM ITK, 2 nM Eu-anti-GST antibody, and 50 nM kinase tracer-236 using a 384-well plate format. Background signal is defined in the absence of ITK and uninhibited signal is defined in the presence of vehicle (2% DMSO) alone. Compounds were evaluated in an 11 point dose-response ranging from 20 uM to 0.34 nM. The binding assays are performed under two preincubation conditions to evaluate time dependence of inhibition. For the pre-incubation assay, ITK and Eu-anti-GST antibody are pre-incubated with compound or vehicle for two hours prior to the addition of kinase tracer. The non-preincubated assay is run under conditions where ITK and Eu-anti-GST antibody are added to a mixture of compound and kinase tracer. IC50 values of compounds are determined using a 4 parameter logistical fit of emission ratio as a function of the concentration of compound.

Test [1] relates to phospho-PLCγ1 in Jurkat cells. The test is described as follows: ITK target modulation PLC-γ assay (phospho-PLCγ1, αCD3-stimulated Jurkat cells). In kind it is cell-based, human. The conditions noted are these: Homo sapiens, 1 hour compound incubation, αCD3 Dynabeads stimulation 8 minutes, MSD phospho-PLCγ1, read-out: PLC-γ Inhibition IC50. On the procedure: Jurkat cells, an immortalized human T-lymphocyte cell line, were maintained in RPMI media, 10% FBS, 1% pen/strep/glutamine (growth media). Cells were plated in growth media plus 50 μM β-mercaptoethanol at 400,000 cells per well of a 96 well plate.
Compounds were serially diluted into DMSO, and then into media to concentrations 10× that of the final assay concentration. Compounds were then added to the cells with the final assay DMSO concentration being 0.1%. Cells were incubated for 1 hour at 37° C.
Following compound incubation, αCD3 Dynabeads were added at 1 bead/cell to each assay well and incubated at 37° C. for 7 minutes. Unstimulated control wells received media only. The plate was then placed on a 96-well magnetic plate for an additional 60 seconds (total assay stimulation time equals 8 minutes). The plate was then dumped and gently patted dry on a paper towel. 50 μl of complete Meso Scale Discovery (MSD) Lysis buffer was then added to each well. Samples were assayed for phospho-PLCγ1 using Meso Scale Discovery technology.
The assay stimulation time has been optimized for detection of Itk kinase-mediated phosphorylation of PLCγ1. The timing and detection reagents for this assay could be adjusted to capture phosphorylation events upstream (e.g., phospho-ZAP70) or downstream of the Itk/PLCγ1 node, provided the appropriate phospho-specific antibodies are available for building of an MSD assay.

Chain of ITK (Q08881 whole entry): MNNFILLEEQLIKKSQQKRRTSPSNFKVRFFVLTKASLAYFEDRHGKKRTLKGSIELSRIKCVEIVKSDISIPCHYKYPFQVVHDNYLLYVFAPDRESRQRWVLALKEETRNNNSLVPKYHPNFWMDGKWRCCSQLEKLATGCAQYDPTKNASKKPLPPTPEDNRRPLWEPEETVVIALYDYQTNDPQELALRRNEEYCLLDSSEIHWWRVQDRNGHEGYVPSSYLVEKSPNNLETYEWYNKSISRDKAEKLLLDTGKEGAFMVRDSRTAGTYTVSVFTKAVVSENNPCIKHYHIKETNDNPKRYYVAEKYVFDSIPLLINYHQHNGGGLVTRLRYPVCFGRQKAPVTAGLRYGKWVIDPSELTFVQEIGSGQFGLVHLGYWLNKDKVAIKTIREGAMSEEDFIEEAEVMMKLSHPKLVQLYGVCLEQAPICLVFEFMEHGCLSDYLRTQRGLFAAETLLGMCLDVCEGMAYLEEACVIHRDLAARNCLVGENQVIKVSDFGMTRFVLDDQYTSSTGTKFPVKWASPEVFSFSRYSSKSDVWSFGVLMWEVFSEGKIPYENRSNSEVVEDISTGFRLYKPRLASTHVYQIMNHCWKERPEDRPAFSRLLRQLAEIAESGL

By IC50 is commonly meant the concentration at which inhibition is half-maximal. For the molecule `C=CC(=O)NC1CN(c2cnc3[nH]cc(-c4ccnc(OC)c4)c3c2)C1` [Example 2, N-(1-(3-(2-Methoxypyridin-4-yl)-1H-pyrrolo[2,3-b]pyridin-5-yl)azetidin-3-yl)acrylamide], the IC50 on ITK is no more than 1 µM. Turning to `COc1cc(-c2c[nH]c3ncc(-c4cccc(NC(=O)/C=C/CN(C)C)c4)cc23)ccn1` [Example 37, (E)-4-(dimethylamino)-N-(3-(3-(2-methoxypyridin-4-yl)-1H-pyrrolo[2,3-b]pyridin-5-yl)phenyl)but-2-enamide], the half-inhibitory concentration (IC50) at ITK is no more than 1 µM; in test [1] it was 1 to 5 µM. As for `C=CC(=O)Nc1cccc(-c2cnc3[nH]cc(-c4cn(C)c(=O)c5ccccc45)c3c2)c1` [Example 72, N-(3-(3-(2-methyl-1-oxo-1,2-dihydroisoquino-lin-4-yl)-1H-pyrrolo[2,3-b]pyridin-5-yl)phenyl)acryl-amide], the IC50 is no more than 1 µM on ITK and less than 1 µM in test [1]. In the case of `C=CC(=O)Nc1cncc(-c2cnc3[nH]cc(-c4ccnc(C)c4)c3c2)c1` [Example 28, N-(5-(3-(2-methylpyridin-4-yl)-1H-pyrrolo[2,3-b]pyridin-5-yl)pyridin-3-yl)acrylamide], the half-maximal inhibitory concentration (IC50) on ITK was no more than 1 µM; in test [1] it was less than 1 µM.

On to `C=CC(=O)Nc1cc(-c2cnc3[nH]cc(-c4ccnc(OC)c4)c3c2)cc(OC(C)C)n1` [Example 45, N-(6-isopropoxy-4-(3-(2-methoxypyridin-4-yl)-1H-pyrrolo[2,3-b]pyridin-5-yl)pyridin-2-yl)acrylamide], for which the values for the IC50 (on ITK; in test [1]) were no more than 1 µM and 1 to 5 µM, respectively. Turning to `C=CC(=O)Nc1cc(-c2cnc3[nH]cc(-c4ccnc(OC)c4)c3c2)cc(C(F)(F)F)c1` [Example 11, N-(3-(3-(2-Methoxypyridin-4-yl)-1H-pyrrolo[2,3-b]pyridin-5-yl)-5-(trifluoromethyl)phenyl)acrylamide], the IC50 at ITK was no more than 1 µM; in test [1], less than 1 µM. Taken in the same sequence, the figures for `C=CC(=O)NC1CN(c2cnc3[nH]cc(-c4ccnc(C)c4)c3c2)C1` [Example 4, N-(1-(3-(2-Methylpyridin-4-yl)-1H-pyrrolo[2,3-b]pyridin-5-yl)azetidin-3-yl)acrylamide] were no more than 1 µM and greater than 5 µM.

Regarding `C=CC(=O)Nc1cncc(-c2cnc3[nH]cc(-c4ccnc(F)c4)c3c2)c1` [Example 27, N-(5-(3-(2-fluoropyridin-4-yl)-1H-pyrrolo[2,3-b]pyridin-5-yl)pyridin-3-yl)acrylamide], the IC50 on ITK is no more than 1 µM. On to `C=CC(=O)Nc1cc(-c2cnc3[nH]cc(-c4ccnc(OC)c4)c3c2)cc(OC)n1` [Example 40, N-(6-methoxy-4-(3-(2-methoxypyridin-4-yl)-1H-pyrrolo[2,3-b]pyridin-5-yl)pyridin-2-yl)acrylamide], for which the IC50 at ITK is no more than 1 µM. Same read-out and setting: next, `C=CC(=O)Nc1cncc(-c2cnc3[nH]cc(-c4ccncc4)c3c2)c1` [Example 16, N-(5-(3-(pyridin-4-yl)-1H-pyrrolo[2,3-b]pyridin-5-yl)pyridin-3-yl)acrylamide]: no more than 1 µM. For the molecule `C=CC(=O)Nc1cccc(-c2cnc3[nH]cc(-c4ccncc4)c3c2)c1` [Example 7, N-(3-(3-(pyridin-4-yl)-1H-pyrrolo[2,3-b]pyridin-5-yl)phenyl)acrylamide], the concentration for half-maximal inhibition (IC50) at ITK was greater than 1 µM.

With `C=CC(=O)Nc1cccc(-c2cnc3[nH]cc(-c4cncc(Cl)c4)c3c2)c1` [Example 43, N-(3-(3-(5-chloropyridin-3-yl)-1H-pyrrolo[2,3-b]pyridin-5-yl)phenyl)acryl-amide], in test [1], the IC50 was in the range of 1 to 5 µM. Turning to `C=CC(=O)Nc1cccc(-c2cnc3[nH]cc(-c4ccnc(F)c4)c3c2)c1` [Example 25, N-(3-(3-(2-fluoropyridin-4-yl)-1H-pyrrolo[2,3-b]pyridin-5-yl)phenyl)acryl-amide], the IC50 in test [1] is less than 1 µM. For the molecule `C=CC(=O)Nc1cccc(-c2cnc3[nH]cc(-c4ccnc(C)c4)c3c2)c1` [Example 26, N-(3-(3-(2-methylpyridin-4-yl)-1H-pyrrolo[2,3-b]pyridin-5-yl)phenyl)acryl-amide], the IC50 in test [1] is less than 1 µM. For the molecule `C=CC(=O)Nc1cc(-c2cnc3[nH]cc(-c4ccc(OC)nc4)c3c2)cc(C(F)(F)F)c1` [Example 58, N-(3-(3-(6-methoxypyridin-3-yl)-1H-pyrrolo[2,3-b]pyridin-5-yl)-5-(trifluoromethyl)phenyl)acryl-amide], the half-inhibitory concentration (IC50) in test [1] is 1 to 5 µM. For the molecule `C=CC(=O)Nc1cc(OC)cc(-c2cnc3[nH]cc(-c4ccncc4)c3c2)c1` [Example 22, N-(3-methoxy-5-(3-(pyridin-4-yl)-1H-pyrrolo[2,3-b]pyridin-5-yl)phenyl)acryl-amide], the IC50 in test [1] is less than 1 µM. Turning to `N#CN[C@H]1CCN(c2cnc3[nH]cc(-c4ccncc4)c3c2)C1` [Example 18, (S)-N-(1-(3-(pyridin-4-yl)-1H-pyrrolo[2,3-b]pyridin-5-yl)pyrrolidin-3-yl)cyanamide], on ITK, the IC50 was no more than 1 µM.

Consider `C=CC(=O)Nc1cc(-c2cnc3[nH]cc(-c4cccnc4)c3c2)cc(C(F)(F)F)c1` [Example 59, N-(3-(3-(pyridin-3-yl)-1H-pyrrolo[2,3-b]pyridin-5-yl)-5-(trifluoromethyl)phenyl)acryl-amide], for which, in test [1], the IC50 was less than 1 µM. On to `C=CC(=O)Nc1cc(-c2cnc3[nH]cc(-c4ccnc(OC)c4)c3c2)cc(-c2cnn(C)c2)c1` [Example 80, N-(3-(3-(2-methoxypyridin-4-yl)-1H-pyrrolo[2,3-b]pyridin-5-yl)-5-(1-methyl-1H-pyrazol-4-yl)phenyl)acryl-amide], for which, in test [1], the concentration for half-maximal inhibition (IC50) was less than 1 µM. For the molecule `C=CC(=O)Nc1cc(-c2cnc3[nH]cc(-c4ccnc(OC)c4)c3c2)cc(C(O)(CC)CC)c1` [Example 83, N-(3-(3-hydroxypentan-3-yl)-5-(3-(2-methoxypyridin-4-yl)-1H-pyrrolo[2,3-b]pyridin-5-yl)phenyl)acryl-amide], in test [1], the IC50 is 1 to 5 µM. Still for that read-out and setting: in the case of `C=CC(=O)Nc1cccc(-c2cnc3[nH]cc(-c4ccnc5ccccc45)c3c2)c1` [Example 64, N-(3-(3-(quinolin-4-yl)-1H-pyrrolo[2,3-b]pyridin-5-yl)phenyl)acryl-amide] it was 1 to 5 µM; in that of `C=CC(=O)Nc1cccc(-c2cnc3[nH]cc(-c4cc(C)cc(OC)n4)c3c2)c1` [Example 52, N-(3-(3-(6-methoxy-4-methylpyridin-2-yl)-1H-pyrrolo[2,3-b]pyridin-5-yl)phenyl)acryl-amide], greater than 5 µM. `C=CC(=O)NC1CN(c2cnc3[nH]cc(-c4ccnc(C#N)c4)c3c2)C1` [Example 5, N-(1-(3-(2-Cyanopyridin-4-yl)-1H-pyrrolo[2,3-b]pyridin-5-yl)azetidin-3-yl)acrylamide]: the half-maximal inhibitory concentration (IC50) in test [1] was greater than 5 µM. Same read-out and setting: next, `C=CC(=O)Nc1cccc(-c2cnc3[nH]cc(-c4cc(NC)ncn4)c3c2)c1` [Example 56, N-(3-(3-(6-(methylamino)pyrimidin-4-yl)-1H-pyrrolo[2,3-b]pyridin-5-yl)phenyl)acryl-amide]: 1 to 5 µM; `C=CC(=O)Nc1cccc(-c2cnc3[nH]cc(-c4cncc5[nH]ccc45)c3c2)c1` [Example 77, N-(3-(3-(1H-pyrrolo[2,3-c]pyridin-4-yl)-1H-pyrrolo[2,3-b]pyridin-5-yl)phenyl)acryl-amide]: greater than 5 µM.

Take `C=CC(=O)NC1CN(c2cnc3[nH]cc(-c4ccc(OC)nc4)c3c2)C1` [Example 3, N-(1-(3-(6-Methoxypyridin-3-yl)-1H-pyrrolo[2,3-b]pyridin-5-yl)azetidin-3-yl)acrylamide]: at ITK, the IC50 was no more than 1 µM.
